Data set [1] is described as follows: Half life of the compound.
For data set [2], the target named is T1, Alkaline phosphatase, tissue-nonspecific isozyme (Bos taurus, UniProt P09487).
T1 sequence (P09487 whole entry): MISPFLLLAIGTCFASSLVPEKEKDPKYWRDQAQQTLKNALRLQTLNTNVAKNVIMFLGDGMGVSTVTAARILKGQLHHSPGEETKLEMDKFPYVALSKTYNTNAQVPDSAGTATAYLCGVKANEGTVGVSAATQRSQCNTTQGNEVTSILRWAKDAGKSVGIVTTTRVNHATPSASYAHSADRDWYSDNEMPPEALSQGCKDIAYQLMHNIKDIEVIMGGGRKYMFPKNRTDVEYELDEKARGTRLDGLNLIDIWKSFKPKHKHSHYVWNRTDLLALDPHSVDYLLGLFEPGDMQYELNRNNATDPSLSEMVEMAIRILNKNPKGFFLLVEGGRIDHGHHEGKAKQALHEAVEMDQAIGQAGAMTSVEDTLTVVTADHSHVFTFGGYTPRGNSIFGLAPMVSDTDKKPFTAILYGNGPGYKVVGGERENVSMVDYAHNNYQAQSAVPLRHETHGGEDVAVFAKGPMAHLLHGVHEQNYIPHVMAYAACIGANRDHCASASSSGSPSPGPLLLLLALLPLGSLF
Description: Drug level in glycine buffer treated with Sodium (((5bS,6aS,7aR,8R,8aS,9aS,9bS,10aS,10bS)-8a-Isopropyl-10b-methyl-3-oxo-1,2,3,5,5b,6,6a,8,8a,9a,9b,10b-dodecahydrotris-(oxireno)[2',3':4b,5;'',3'':6,7;2''',3''':8a,9]phenanthro[1,2-c]furan-8-yl)oxy)methyl Phosphate at pH 9.8 in presence of bovine intestinal mucosal alkaline phosphatase. To be noted: cattle, isolated protein.

The half-life is the time in which the quantity being followed falls by half. As to `C=O` [FORMALDEHYDE], the half-life in data set [1] stood at 1.5 min. Also, the Drug metabolism result in data set [2] is reported as “metabolite_detected”.
Take `CC(C)[C@]12O[C@H]1[C@@H]1O[C@]13[C@]1(O[C@H]1C[C@H]1C4=C(CC[C@@]13C)C(=O)OC4)[C@@H]2O` [TRIPTOLIDE]: in data set [2], the Drug metabolism entry is reported as “metabolite_detected”.

The values are drawn from ChEMBL document CHEMBL3739335, “Phosphonooxymethyl Prodrug of Triptolide: Synthesis, Physicochemical Characterization, and Efficacy in Human Colon Adenocarcinoma and Ovarian Cancer Xenografts” (J Med Chem, 2015).
